The results in this text go back to US20250090530A1, “COMBINATIONS FOR THE TREATMENT OF CANCER” (Terns Pharmaceuticals, Inc., priority 2023, published 2025).

Bounds are passed on as bounds.

The test system of assay [1] is K562. The experiment in a line: Fixed molar combinations with active site TKIs, curve shift and isobologram analyses (CellTiter-Glo viability). It counts as cell-based.
Assay [2] concerns Ku812. Described as above. It counts as cell-based.
Assay [3] concerns BaF3-BCR-ABL-T315I. The experiment in a line: Expanded combination matrix, excess over Bliss. The format is cell-based. The conditions noted are these: 72 hours.
The subject of assay [4] is BaF3BCR-ABL-T315I. The experiment in a line: Fixed molar combinations, curve shift and isobologram analyses. The format is cell-based. The conditions noted are these: 72 hours.
Assay [5] concerns K562. The experiment in a line: Expanded combination matrix, BLISS synergy (CellTiter-Glo viability). The format is cell-based.
For assay [6], the system named is Ku812. The description is as above. The format is cell-based.
Assay [7] relates to kinase panel. The experiment in a line: In vitro kinase panel (substrate phosphorylation assays). The format is biochemical. Particulars: at 1 μM.

As to `O=C(Nc1ccc(OC(F)(F)Cl)cc1)c1cnc(N2CC[C@@H](O)C2)c(-c2cc[nH]n2)c1` [Asciminib, asciminib], the “Summary of Observations (synergy by curve shift and isobologram analyses)” value was “Synergy at IC90” in assay [1] (combination partner Dasatinib); “Synergy at IC75 and IC90” in assay [1] (combination partner Imatinib); “Synergy at IC75 and IC90” in assay [1] (combination partner Ponatinib); “Additivity” in assay [2] (combination partner Dasatinib); “Additivity” in assay [2] (combination partner Imatinib); “Additivity” in assay [2] (combination partner Ponatinib). Further, the “Excess over Bliss score sum” value stood at 3.19 in assay [3] (Compound 2 dasatinib); 0.81 in assay [3] (Compound 2 flumatinib); 1.29 in assay [3] (Compound 2 imatinib); 0.36 in assay [3] (Compound 2 nilotinib); 0.83 in assay [3] (Compound 2 ponatinib). For the same compound, the “Highest excess over Bliss score” value in assay [3] (Compound 2 dasatinib) is given as 0.27; in assay [3] (Compound 2 flumatinib), 0.15; in assay [3] (Compound 2 imatinib), 0.15; in assay [3] (Compound 2 nilotinib), 0.05; in assay [3] (Compound 2 ponatinib) it was 0.14. The results for the “Conclusion (synergy by curve shift and isobologram analyses)” value in assay [4] (Reference dasatinib), in assay [4] (Reference flumatinib) and in assay [4] (Reference nilotinib) were “synergy”, “no synergy” and “no synergy”, respectively.

Take `C[C@H](CO)n1c(C(F)F)nc2cc(C(=O)Nc3ccc(OC(F)(F)Cl)cc3)cc(-c3cncnc3)c21` [Compound A, (R)—N-(4-(chlorodifluoromethoxy)phenyl)-2-(difluoromethyl)-1-(1-hydroxypropan-2-yl)-7-(pyrimidin-5-yl)-1H-benzo[d]imidazole-5-carboxamide]: the “Interaction in in vitro combination studies” value in assay [1] (with multiple TKIs) is recorded as “works synergistically”; in assay [2] (with multiple TKIs), “at least additively”. Besides, the “Strongest BLISS score” value in assay [5] (combination partner Dasatinib) was 0.16; in assay [5] (combination partner Imatinib), 0.12; in assay [5] (combination partner Ponatinib) it was 0.17; in assay [6] (combination partner Dasatinib), 0.08; in assay [6] (combination partner Imatinib), 0.05; in assay [6] (combination partner Ponatinib) it was 0.07. Besides, the “Summary of Observations (BLISS synergy)” value in assay [5] (combination partner Dasatinib) is given as “BLISS synergy”; in assay [5] (combination partner Imatinib) it was “BLISS synergy”; in assay [5] (combination partner Ponatinib) it was “BLISS synergy”; in assay [6] (combination partner Dasatinib) it was “Weak synergy observed”; in assay [6] (combination partner Imatinib), “Weak synergy observed”; in assay [6] (combination partner Ponatinib) it was “Weak synergy observed”. Also, in assay [7], the “Inhibition of any kinase in in vitro kinase panel” value is at most 50%.
